Here are results for two compounds from US20210300943A1, “OGA INHIBITOR COMPOUNDS” (Janssen Pharmaceutica NV, priority 2018, published 2021).

The assay concerns the target T1, OGA (Homo sapiens, UniProt O60502).
T1 construct: endogenous in cells; host or cells: HEK293 cells inducible for P301L mutant human Tau (2N4R)
T1 sequence (O60502 1-916): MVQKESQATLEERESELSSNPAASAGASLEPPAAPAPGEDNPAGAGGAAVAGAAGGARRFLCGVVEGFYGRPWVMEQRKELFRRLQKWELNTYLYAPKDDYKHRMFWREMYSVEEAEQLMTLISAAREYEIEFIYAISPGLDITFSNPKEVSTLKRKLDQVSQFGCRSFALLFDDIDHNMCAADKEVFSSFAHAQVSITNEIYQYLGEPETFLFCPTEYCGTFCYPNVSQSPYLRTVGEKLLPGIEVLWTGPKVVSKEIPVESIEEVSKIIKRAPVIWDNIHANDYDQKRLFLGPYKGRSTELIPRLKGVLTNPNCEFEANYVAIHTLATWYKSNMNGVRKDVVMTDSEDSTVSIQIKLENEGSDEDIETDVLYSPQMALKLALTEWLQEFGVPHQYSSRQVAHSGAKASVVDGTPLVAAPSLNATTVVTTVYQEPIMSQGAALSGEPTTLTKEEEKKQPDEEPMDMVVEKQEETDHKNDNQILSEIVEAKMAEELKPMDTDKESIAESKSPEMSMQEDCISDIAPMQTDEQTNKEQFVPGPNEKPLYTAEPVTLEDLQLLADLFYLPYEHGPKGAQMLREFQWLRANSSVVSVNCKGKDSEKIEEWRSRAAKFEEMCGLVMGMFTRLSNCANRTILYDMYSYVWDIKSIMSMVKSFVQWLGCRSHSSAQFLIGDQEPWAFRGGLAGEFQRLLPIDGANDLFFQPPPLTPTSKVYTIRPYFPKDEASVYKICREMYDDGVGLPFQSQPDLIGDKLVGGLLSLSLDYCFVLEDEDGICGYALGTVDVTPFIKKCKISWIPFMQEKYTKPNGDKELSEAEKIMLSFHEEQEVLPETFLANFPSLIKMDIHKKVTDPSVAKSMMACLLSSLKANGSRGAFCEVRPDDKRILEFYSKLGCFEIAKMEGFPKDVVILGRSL
The assay can be described thus: OGA cellular assay (ICC detection of O-GlcNAcylated proteins in HEK293 cells inducible for P301L mutant human Tau). Type of assay: cell-based. The conditions noted are these: for EC50: 6 hours incubation, read-out: Cellular hOGA, pEC50 (converted). In outline:
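HEK293 cells inducible for P301L Tau, in low-glucose assay medium, treated 6 h with compound at 0.2% DMSO. O-GlcNAcylated proteins detected by CTD110.6 immunostaining, imaged at 488 nm with Hoechst nuclear counts for toxicity. IC50 from non-linear regression, 200 uM Thiamet G as maximum.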

The mark [1] stands for this setting: HEK293 cells inducible for P301L mutant human Tau.

`Cc1cc([C@H]2CCCN(C(C)c3cnc4c(c3)OCCN4)C2)cc(C)n1` (single isomer, unassigned) [Product 135] showed an Emax (HEK293, HEK293 cells inducible for P301L mutant human Tau, maximal effect, Thiamet G 200 uM as maximum) of 68%. Further, the EC50 under setting [1] is 25.1 nM.

On to `Cc1cc(OC[C@H]2CCCN(C(C)c3nc4c(cc3F)OCCO4)C2)cc(C)n1` (single isomer, unassigned) [Product 155], for which, under setting [1], the EC50 was 2.57 nM. For the same compound, under “HEK293 cells inducible for P301L mutant human Tau, maximal effect, Thiamet G 200 uM as maximum”, the “Cellular Emax (%)” value is 95%.

For orientation: Emax means the size of the effect at its maximum, as opposed to the concentration needed.
